Test system: patients with major depression
Assay: double-blind placebo-controlled crossover study: rapamycin or placebo 2 hours before ketamine infusion, depression severity (MADRS)
Assay type: in vivo, human
Protocol: The present studies address a longstanding question in the field—whether the antidepressant effects of ketamine depend upon its capacity to stimulate a key protein known as the mechanistic target for rapamycin (mTOR). If that is indeed the case, ketamine's effects should be reduced when mTOR is inhibited. To test this hypothesis, a double-blind placebo-controlled crossover study was conducted under fully randomized conditions, whereby one set of patients was treated with the mTOR inhibitor rapamycin, an FDA approved drug that is currently used to treat certain immune disorders and cancers.
In this design, symptomatic antidepressant-treated patients with major depression who have a history of non-response to at least one prior antidepressant trial were recruited and studied over 3 years. Participants completed two ketamine infusion test days separated by at least two weeks. On each ketamine test day, patients were randomized to take a “loading dose” of rapamycin or placebo 2 hours before receiving an intravenous infusion of ketamine. The primary outcome measure of the study was the severity of depression, as measured by the Montgomery Åsberg Depression Rating Scale (MADRS). […]
Depression severity was assessed at baseline, and at 4 h, 24 h, 1 week, and 2 weeks post treatment. […]

## CNC1(c2ccccc2Cl)CCCCC1=O (racemic) [ketamine, (RS)-2-(2-Chlorophenyl)-2-(methylamino)cyclohexanone]
Placebo prior to 0.5 mg/kg iv ketamine, MADRS
  time to relapse: ≤ 2 weeks
Single ketamine infusion without rapamycin
  duration of benefits produced by ketamine: a few days

From patent US11793794B2, “Combination therapy for treating or preventing depression or other mood diseases” (YALE UNIVERSITY, priority 2018, dated 2023)
